Experimental data taken from patent US20050014680A1, “Methods and compositions for enhancing neuron growth and survival” (priority 2003, published 2005).

Columns and labels:
[1] = test system: dissociated E10.5 trigeminal neurons; experiment: Survival assay, Tunel staining of low-density dissociated E10.5 trigeminal neurons; assay type: cell-based, mouse; conditions: serum-free medium, 24 hr; 150 nM Kn252a; 100 ng/ml FK506, 1 μg/ml CsA
Excerpt: Embryos were obtained from timed pregnancies with the noon of the plug date defined as […]. For whole-mount studies, embryos were processed and stained with anti-Neurofilament antibody (clone 2H3, DSHB) and processed for DAB or fluorescent staining. Sections were stained with anti-NF-M antibody, anti-TAG-1 antibody, anti-Lim1/2, anti-Pax7, anti-Nkx2.2, anti HNF-3b, anti-islet-1 (all from DSHB), Tuj-1 (ABR) and anti-TrkC (Chemicon). Secondary antibodies used were HRP conjugated goat anti-mouse antibody (Jackson Immunoresearch), Alexa-594 and Alexa-488 conjugated goat anti-mouse antibody (Molecular Probes) as well as anti-mouse and anti-rabbit ABC kits (Vector). Tunel assays were performed according to the manufacturer's recommendations (Roche).
Trigeminal ganglia were incubated for 5 minutes at 37° C. with 10 mg/ml trypsin (Sigma)+DNAse (Sigma) in calcium- and magnesium-free (CMF) HBSS. After removal of the trypsin solution, the ganglia were washed 3 times with Hams F12 medium containing 10% heat-inactivated horse serum washed 3 times with CMF-HBSS and were gently triturated in 1 ml CMF-HBSS+DNAse with a fire-polished, siliconised Pasteur pipettes to give a single cell suspension. […]

[2] = test system: NFAT-dependent transcription; experiment: NFAT-luciferase reporter assay in cortical neurons; assay type: cell-based, mouse and rat; conditions: E15.5 cultured cortical neurons, 100 ng/ml, lysed 18 hrs after stimulation
Procedure: (§1) The reporter plasmid NFAT-Luciferase and the EGFP-NFATc4 plasmid have been described elsewhere (Graef et al., 1999). The TrkA constructs have been previously described (Ming et al., 1999). For luciferase assays the cells were treated 16 hrs after transfection with 100 ng/ml recombinant BDNF (Gibco) or 100 ng/ml recombinant NGF. For studies with FK506/CsA the cells were preincubated for 10 min with the inhibitors before stimulation and the inhibitors were present during the stimulation. Cells were lysed for luciferase assays 18 hrs after stimulation and luciferase assays performed according to standard protocols. For microscopy, neurons were fixed in 4% formaldehyde/PBS. Co-transfected m yc-epitope tagged Trk-A was visualized by staining with anti-myc antibody (clone 4E10, Pharmingen), followed by Alexa-594 conjugated goat anti-mouse antibody (Molecular Probes).

[3] = test system: NFATc4; experiment: Cytoplasmic-to-nuclear translocation of EGFP-NFATc4 in cortical neurons; assay type: cell-based, mouse and rat
Procedure: as §1

[4] = test system: trigeminal neuron growth cones; experiment: Growth cone morphology and collapse, trigeminal explant cubes stained with phalloidin; assay type: cell-based, mouse; conditions: c2/c3/c4 triple mutant ganglia or wild-type ganglia cultured with CsA and FK506, 30 min
Procedure: E10.5 trigeminal explants were cultured in either collagen or matrigel (Becton-Dickinson) gels in the presence of NT-3 (Gibco) and NGF (Gibco) as previously described (O'Connor and Tessier-Lavigne, 1999). The explants were then fixed in 4% PFA/PBS and axons were visualized by wholemount immunostaining with the anti-NF-M antibody (O'Connor and Tessier-Lavigne, 1999). For cultures on laminin, eight-well chamber tissue culture slides were coated with poly-L-lysine followed by laminin. Trigeminal ganglia were either dissociated or cut into small cubes and cultured in medium supplemented with NT-3 and NGF. For assessing growth cone morphology cells were fixed with 25% sucrose in 4% PFA/PBS and stained with either Alexa 594-phalloidin (Molecular Probes) alone or plus anti-III β-tubulin antibody (Tuj-1, Covance).

COC(=O)[C@@]1(O)C[C@H]2O[C@]1(C)n1c3ccccc3c3c4c(c5c6ccccc6n2c5c31)C(=O)NC4 [Kn252a]
cell death (Tunel-positive cells) [1]: even greater degree of cell death

NGF: recombinant NGF, nerve growth factor, a neurotrophin
activation of NFAT-dependent transcription [2]: did not activate transcription from this reporter unless TrkA was introduced
nuclear translocation of EGFP-NFATc4, no TrkA transfected ([3]; E15.5 cortical neurons lacking TrkA (data not shown)): did not induce translocation
nuclear translocation of EGFP-NFATc4, TrkA co-transfected ([3]; cortical neurons co-transfected with EGFP-NFATc4 and TrkA, 100 ng/ml NGF): led to rapid translocation of EGFP-NFATc4 into the nucleus

B1: Sema3A: semaphorin 3-A, induces growth cone collapse (protein, UniProt Q14563 21-771, looked up)
Semaphorin-3A: NYQNGKNNVPRLKLSYKEMLESNNVITFNGLANSSSYHTFLLDEERSRLYVGAKDHIFSFDLVNIKDFQKIVWPVSYTRRDECKWAGKDILKECANFIKVLKAYNQTHLYACGTGAFHPICTYIEIGHHPEDNIFKLENSHFENGRGKSPYDPKLLTASLLIDGELYSGTAADFMGRDFAIFRTLGHHHPIRTEQHDSRWLNDPKFISAHLISESDNPEDDKVYFFFRENAIDGEHSGKATHARIGQICKNDFGGHRSLVNKWTTFLKARLICSVPGPNGIDTHFDELQDVFLMNFKDPKNPVVYGVFTTSSNIFKGSAVCMYSMSDVRRVFLGPYAHRDGPNYQWVPYQGRVPYPRPGTCPSKTFGGFDSTKDLPDDVITFARSHPAMYNPVFPMNNRPIVIKTDVNYQFTQIVVDRVDAEDGQYDVMFIGTDVGTVLKVVSIPKETWYDLEEVLLEEMTVFREPTAISAMELSTKQQQLYIGSTAGVAQLPLHRCDIYGKACAECCLARDPYCAWDGSACSRYFPTAKRRTRRQDIRNGDPLTHCSDLHHDNHHGHSPEERIIYGVENSSTFLECSPKSQRALVYWQFQRRNEERKEEIRVDDHIIRTDQGLLLRSLQQKDSGNYLCHAVEHGFIQTLLKVTLEVIDTEHLEELLHKDDDGDGSKTKEMSNSMTPSQKVWYRDFMQLINHPNLNTMDEFCEQVWKRDRKQRRQRPGHTPGNSNKWKHLQENKKGRNRRTHEFERAPRSV
collapse of growth cones on matrigel [4]: induced efficient collapse of growth cones

B2: BDNF: recombinant BDNF (Gibco), a neurotrophin (protein, UniProt P23560 19-247, looked up)
Neurotrophic factor BDNF …: APMKEANIRGQGGLAYPGVRTHGTLESVNGPKAGSRGLTSLADTFEHVIEELLDEDQKVRPNEENNKDADLYTSRVMLSSQVPLEPPLLFLLEEYKNYLDAANMSMRVRRHSDPARRGELSVCDSISEWVTAADKKTAVDMSGGTVTVLEKVPVSKGQLKQYFYETKCNPMGYTKEGCRGIDKRHWNSQCRTTQSYVRALTMDSKKRIGWRFIRIDTSCVCTLTIKRGR
activation of NFAT-dependent transcription [2]: powerful activator of NFAT-dependent transcription
time to nuclear translocation of EGFP-tagged NFATc4 ([3]; E15.5 cortical neurons, 100 ng/ml BDNF): ≤ 30 min
